From patent EP0104826A2, “Immunomodulator and method of use for immunomodulation” (FUJISAWA PHARMACEUTICAL CO., LTD., priority 1982, dated 1984)

Tested on: mouse spleen cells
Assay: Mitogen (concanavalin A)-induced mouse spleen cell proliferation, 3H-thymidine incorporation; suppression by immunosuppressive factor and restoration
Type: cell-based
Protocol: 1) Preparation of immunosuppressive factor from tumor bearing mice serum.
ICR mice were intraperitonealy inoculated with 0.2 ml of S-180 suspension (5x10^6 cells/ml). S-180 bearing mice were bled from heart under light ether anesthesia with sterile synringe between 7 and 9 days after transplantation and serum was collected.
Immunosuppressive factor was partially purified from the S-180 tumor bearing mice serum according to the method described by SE-KYUNG OH and F.L.MOOLTEN (J. Immunol., 127, 2300-2307, 1981). Briefly, the serum (50 ml) was delipidated with 1/10 vol. of 4% phosphotungstic acid and 1/40 vol of 2M magnesium chloride and centrifuged at 6000 x G for 10 min. Excess phosphotungstic acid and magnesium ion were removed by dialysis against phosphate- buffered saline (PBS: 0.15 M sodium chloride and 0.01 M phosphate buffer, pH 7.4). Then, partially delipidated serum was precipitated with ammonium sulfate at 50% saturation. The supernatant was removed by centrifugation at 20000 x G for 30 min. The precipitates were redissolved in a small volume of water and dialysed against PBS overnight at 4°C. The dialysed solution was chromatographed on Sephadex G-200 column in PBS. Each eluate (15 ml) was assayed for suppressive activity.
Immunosuppressive activity was measured by assay for inhibition of the mitogen-induced mouse spleen cell proliferation.
3) Suppression of mitogen-induced mouse spleen cell proliferation and its restoration by swainsonine in vitro.
Mitogenic activities for mouse spleen cells in vitro : • a) Mice. Female BALB/C strain (8 weeks of age) was used. • b) Tissue culture medium : The tissue culture medium employed was a complete medium designated Roswell Park Memorial Institute(RPMI)-1640. All media employed contained 100 units/ml of penicillin G and 100 µg/ml of streptomycin sulfate and 5% fetal calf serum. • c) Spleen cell preparation : Spleens were removed under sterile conditions and washed with Hanks solution and then teased in the tissue culture medium. The cells were suspended in the tissue culture medium to contain 5 x 10^5 cells/ml. • d) Culture conditions : Into each hole of Microtiteration plate (Falcon No. 3040) were poured 0.1 ml of the above cells suspension and 0.1 ml of the prescribed concentrate of the compound and/or immunosuppressive factor described above. […] The culture was incubated in triplicate at 37°C in a humidified atmosphere (95% air, 5% C02) for 48 hours. • e) Assay for mitogen induced mouse spleen cells proliferation. The mitogen induced mouse spleen cells proliferation was assayed for tritiated thymidine (^3H-thymidine) incorporation. In all tests, 20 pl of 10 micro curie (uCi)/ml of ^3H-thymidine was added to each hole for the 48 hours of culture. After further 24 hours incubation, the culture was terminated.
The resultant cells were filtered with filter paper, Whatman GF83 and washed successively with saline and with 5% trichloroacetic acid. The filter paper was dried and placed in a scintillator(toluene 1 liter containing 0.1 g of p-bis(5-phenyl oxazole)-benzene and 4 g of 2,5-diphenyloxazole), and ^3H-thymidine incorporated into DNA was measured.

[1] = swainsonine alone added to mouse spleen cell culture

O[C@H]1[C@H]2[C@H](O)CCCN2C[C@H]1O [Swainsonine]
Con A induced stimulation of ^3H-thymidine incorporation into mouse spleen cell, increase relative to Con A only (Con A and swainsonine added simultaneously): 10 times | ^3H-thymidine uptake (cpm) (Concanavalin A 0.3 µg/well + swainsonine 0.0002 µg/well): 67,017 cpm | ^3H-thymidine uptake (cpm) (Concanavalin A 0.3 µg/well + swainsonine 0.002 µg/well): 105,850 cpm | ^3H-thymidine uptake (cpm) (Concanavalin A 0.3 µg/well + swainsonine 0.02 µg/well): 108,748 cpm | ^3H-thymidine uptake (cpm) (Concanavalin A 0.3 µg/well + swainsonine 0.2 µg/well): 118,071 cpm | ^3H-thymidine uptake (cpm) (Concanavalin A 0.3 µg/well + swainsonine 2 µg/well): 100,480 cpm | ^3H-thymidine uptake (cpm) (Concanavalin A 0.3 µg/well + swainsonine 20 µg/well): 68,778 cpm | ^3H-thymidine uptake (cpm) (Concanavalin A 1 µg/well + Immunosuppressive factor 6 µl/well + swainsonine 0.002 µg/well): 69,313 cpm | ^3H-thymidine uptake (cpm) (Concanavalin A 1 µg/well + Immunosuppressive factor 6 µl/well + swainsonine 0.02 µg/well): 66,858 cpm | ^3H-thymidine uptake (cpm) (Concanavalin A 1 µg/well + Immunosuppressive factor 6 µl/well + swainsonine 0.2 µg/well): 70,890 cpm | ^3H-thymidine uptake (cpm) (Concanavalin A 1 µg/well + Immunosuppressive factor 6 µl/well + swainsonine 2 µg/well): 53,500 cpm | ^3H-thymidine uptake (cpm) (Concanavalin A 1 µg/well + Immunosuppressive factor 6 µl/well + swainsonine 20 µg/well): 37,746 cpm | ^3H-thymidine uptake (cpm) (Swainsonine alone, 0.0002 µg/well): 1,311 cpm | ^3H-thymidine uptake (cpm) (Swainsonine alone, 0.002 µg/well): 1,598 cpm | ^3H-thymidine uptake (cpm) (Swainsonine alone, 0.02 µg/well): 1,712 cpm | ^3H-thymidine uptake (cpm) (Swainsonine alone, 0.2 µg/well): 1,734 cpm | ^3H-thymidine uptake (cpm) (Swainsonine alone, 2 µg/well): 1,726 cpm | ^3H-thymidine uptake (cpm) (Swainsonine alone, 20 µg/well): 1,260 cpm | suppression of mitogenic response by immunosuppressive factor (swainsonine added to culture containing immunosuppressive factor): prevented the suppression | mitogenic activity of mouse spleen cell [1]: did not affected | spleen cell viability [1]: did not affected
